Measurements from ChEMBL document CHEMBL1147899, “Raman, FT-IR, NMR spectroscopic data and antimicrobial activity of bis[micro2-(benzimidazol-2-yl)-2-ethanethiolato-N,S,S-chloro-palladium(II)] dimer, [(micro2-CH2CH2NHNCC6H4)PdCl]2.C2H5OH complex” (2007).

Columns and labels:
Format in all cases: functional
[1] = tested on: Candida albicans; experiment: Antifungal activity against Candida albicans ATCC 10231 at 10 ug after 72 hrs by disk diffusion method; settings: ATCC 10231, 72 h, read-out: IZ
[2] = tested on: Rhodotorula mucilaginosa; experiment: Antifungal activity against Rhodotorula rubra DSM 70403 at 10 ug after 72 hrs by disk diffusion method; settings: DSM 70403, 72 h, read-out: IZ
[3] = tested on: Debaryomyces hansenii; experiment: Antifungal activity against Debaryomyces hansenii DSM 70238 at 10 ug after 72 hrs by disk diffusion method; settings: DSM 70238, 72 h, read-out: IZ
[4] = tested on: Hanseniaspora guilliermondii; experiment: Antifungal activity against Hanseniaspora guilliermondii DSM 3432 at 10 ug after 72 hrs by disk diffusion method; settings: DSM 3432, 72 h, read-out: IZ
[5] = tested on: Kluyveromyces marxianus; experiment: Antifungal activity against Kluyveromyces fragilis NRRL 2415 at 10 ug after 72 hrs by disk diffusion method; settings: NRRL 2415, 72 h, read-out: IZ

Clc1ccccc1C(c1ccccc1)(c1ccccc1)n1ccnc1 [CLOTRIMAZOLE]
zone of inhibition at 10 µg/disc [1]: 15 mm
zone of inhibition at 10 µg/disc [2]: 16 mm
zone of inhibition at 10 µg/disc [3]: 18 mm
zone of inhibition at 10 µg/disc [4]: 22 mm
zone of inhibition at 10 µg/disc [5]: 18 mm
